Experimental data: patent US12509462B2, “3-(phenylsulfonyl)-[1,2,3]triazolo[1,5A]quinazolin-5(4H)-one derivatives” (BIOVERSYS AG, priority 2018, dated 2025)
In brackets after ≈: the same amount, converted by molar mass.

How the values were obtained:
MRSA = assay: MIC by broth microdilution in CA-MHB (CLSI); settings: Staphylococcus aureus, 18 h, read-out: MIC on MRSA
HepG2 = settings: human, 48 h
[1] = system: Staphylococcus aureus MRSA strain (USA300 isolate); assay: Hemolysis Assay II (exotoxin-mediated lysis of rabbit red blood cells by culture filtrate); format: cell-based; settings: Erythrocyte; for minimal effective concentration / IC95: 18 h; for minimal effective concentration: absorbance <2× the average of the complete inhibition control, read-out: Hemolysis assay II MEC (minimal effective concentration); for IC95: read-out: Hemolysis assay II IC95; for IC50: 18 h culture in CA-MHB, rabbit red blood cells

Structure (SMILES)	MIC (MRSA)	LD50 HepG2 (HepG2)	minimal effective concentration [1]	IC95 [1]	IC50 [1]
COc1ccc2c(=O)[nH]c3c(S(=O)(=O)c4ccc(C)cc4F)nnn3c2c1 [Compound 14, 3-(2-fluoro-4-methyl-phenyl)sulfonyl-8-methoxy-4H-triazolo[1,5-a]quinazolin-5-one]	≥ 100 µM	>=100 μM	–	–	–
COc1ccc2c(=O)[nH]c3c(S(=O)(=O)c4ccc(C)cc4OC)nnn3c2c1 [Compound 10, 8-methoxy-3-(2-methoxy-4-methyl-phenyl)sulfonyl-4H-triazolo[1,5-a]quinazolin-5-one]	≥ 100 µM	>=100 μM	–	–	–
Cc1ccc(S(=O)(=O)c2nnn3c2[nH]c(=O)c2cccc(Cl)c23)c(C)c1 [Compound 4, 9-chloro-3-(2,4-dimethylphenyl)sulfonyl-4H-triazolo[1,5-a]quinazolin-5-one]	≥ 100 µM	50 µM	8 µg/mL	5.2 µg/mL (≈ 13.4 µM)	2.3 µg/mL (≈ 5.92 µM)
Cc1ccc(S(=O)(=O)c2nnn3c2[nH]c(=O)c2ccc(NCCN4CCOCC4)cc23)c(C)c1 [Compound 48, 3-(2,4-dimethylphenyl)sulfonyl-8-(2-morpholinoethylamino)-4H-triazolo[1,5-a]quinazolin-5-one]	50 µM (≈ 24.1 µg/mL)	50 µM	8 µg/mL	7 µg/mL (≈ 14.5 µM)	1.6 µg/mL (≈ 3.32 µM)
Cc1ccc(S(=O)(=O)c2nnn3c2[nH]c(=O)c2ccc(OCCCC#N)cc23)c(C)c1 [Compound 41, 4-[[3-(2,4-dimethylphenyl)sulfonyl-5-oxo-4H-triazolo[1,5-a]quinazolin-8-yl]oxy]butanenitrile]	≥ 100 µM	>=100 μM	2 µg/mL	2.5 µg/mL (≈ 5.71 µM)	0.65 µg/mL (≈ 1.49 µM)
Cc1ccc(S(=O)(=O)c2nnn3c2[nH]c(=O)c2c(Cl)cccc23)c(C)c1 [Compound 2, 6-chloro-3-(2,4-dimethylphenyl)sulfonyl-4H-triazolo[1,5-a]quinazolin-5-one]	≥ 100 µM	>=100 μM	2 µg/mL	2.5 µg/mL (≈ 6.43 µM)	0.85 µg/mL (≈ 2.19 µM)
Cc1cc(Br)c(S(=O)(=O)c2nnn3c2[nH]c(=O)c2ccccc23)cc1C [Compound 44, 3-(2-bromo-4,5-dimethyl-phenyl)sulfonyl-4H-triazolo[1,5-a]quinazolin-5-one]	≥ 100 µM	>=100 μM	6 µg/mL	7.2 µg/mL (≈ 16.6 µM)	1.85 µg/mL (≈ 4.27 µM)
CC(C)c1ccc(S(=O)(=O)c2nnn3c2[nH]c(=O)c2cccc(Cl)c23)cc1 [Compound 9, 9-chloro-3-(4-isopropylphenyl)sulfonyl-4H-triazolo[1,5-a]quinazolin-5-one]	25 µM (≈ 10.1 µg/mL)	25 µM	–	–	–
Cc1ccc(S(=O)(=O)c2nnn3c2[nH]c(=O)c2ccc(NC4CCOCC4)cc23)c(C)c1 [Compound 49, 3-(2,4-dimethylphenyl)sulfonyl-8-(tetrahydropyran-4-ylamino)-4H-triazolo[1,5-a]quinazolin-5-one]	≥ 100 µM	50 µM	3 µg/mL	4.5 µg/mL (≈ 9.92 µM)	0.75 µg/mL (≈ 1.65 µM)
COc1ccc2c(=O)[nH]c3c(S(=O)(=O)c4ccc(C5CC5)cc4C)nnn3c2c1 [Compound 27, 3-(4-cyclopropyl-2-methyl-phenyl)sulfonyl-8-methoxy-4H-triazolo[1,5-a]quinazolin-5-one]	≥ 100 µM	>=100 μM	2 µg/mL	1.9 µg/mL (≈ 4.63 µM)	0.15 µg/mL (≈ 0.365 µM)
COc1ccc2c(=O)[nH]c3c(S(=O)(=O)c4ccc(Br)cc4C)nnn3c2c1 [Compound 13, 3-(4-bromo-2-methyl-phenyl)sulfonyl-8-methoxy-4H-triazolo[1,5-a]quinazolin-5-one]	≥ 100 µM	>=100 μM	–	–	–
Cc1ccc(S(=O)(=O)c2nnn3c2[nH]c(=O)c2ccc(C#N)cc23)c(C)c1 [Compound 6, 3-(2,4-dimethylphenyl)sulfonyl-5-oxo-4H-triazolo[1,5-a]quinazoline-8-carbonitrile]	≥ 100 µM	>=100 μM	–	–	–
COc1ccc2c(=O)[nH]c3c(S(=O)(=O)c4ccc(NC(C)=O)cc4C)nnn3c2c1 [Compound 16, N-[4-[(8-methoxy-5-oxo-4H-triazolo[1,5-a]quinazolin-3-yl)sulfonyl]-3-methyl-phenyl]acetamide]	≥ 100 µM	>=100 μM	–	–	–
COc1ccc2c(=O)[nH]c3c(S(=O)(=O)c4ccc(OC(F)(F)F)cc4C)nnn3c2c1 [Compound 19, 8-methoxy-3-[2-methyl-4-(trifluoromethoxy)phenyl]sulfonyl-4H-triazolo[1,5-a]quinazolin-5-one]	≥ 100 µM	>=100 μM	–	–	–
COc1ccc(S(=O)(=O)c2nnn3c2[nH]c(=O)c2ccc(OC)cc23)c(C)c1 [Compound 15, 8-methoxy-3-(4-methoxy-2-methyl-phenyl)sulfonyl-4H-triazolo[1,5-a]quinazolin-5-one]	≥ 100 µM	>=100 μM	–	–	–
COc1ccc2c(=O)[nH]c3c(S(=O)(=O)c4ccc(F)cc4C)nnn3c2c1 [Compound 17, 3-(4-fluoro-2-methyl-phenyl)sulfonyl-8-methoxy-4H-triazolo[1,5-a]quinazolin-5-one]	≥ 100 µM	>=100 μM	–	–	–
COc1ccc2c(=O)[nH]c3c(S(=O)(=O)c4ccc(OC(C)C)cc4C)nnn3c2c1 [Compound 11, 3-(4-isopropoxy-2-methyl-phenyl)sulfonyl-8-methoxy-4H-triazolo[1,5-a]quinazolin-5-one]	≥ 100 µM	>=100 μM	–	–	–

Second part, led by results:

MIC (MRSA)	Structure (SMILES)	LD50 HepG2 (HepG2)	minimal effective concentration [1]	IC95 [1]	IC50 [1]
≥ 100 µM	Cc1ccc(S(=O)(=O)c2nnn3c2[nH]c(=O)c2ccc(OCC#N)cc23)c(C)c1 [Compound 54, 2-[[3-(2,4-dimethylphenyl)sulfonyl-5-oxo-4H-triazolo[1,5-a]quinazolin-8-yl]oxy]acetonitrile]	>=100 μM	–	–	–
≥ 100 µM	COc1ccc2c(=O)[nH]c3c(S(=O)(=O)c4ccc(Cl)cc4C)nnn3c2c1 [Compound 20, 3-(4-chloro-2-methyl-phenyl)sulfonyl-8-methoxy-4H-triazolo[1,5-a]quinazolin-5-one]	>=100 μM	–	–	–
≥ 100 µM	Cc1ccc(S(=O)(=O)c2nnn3c2[nH]c(=O)c2ccc(OCCCC(N)=O)cc23)c(C)c1 [Compound 56, 4-[[3-(2,4-dimethylphenyl)sulfonyl-5-oxo-4H-triazolo[1,5-a]quinazolin-8-yl]oxy]butanamide]	>=100 μM	–	–	–
≥ 100 µM	CCOC(=O)c1ccc(S(=O)(=O)c2nnn3c2[nH]c(=O)c2ccc(OC)cc23)c(C)c1 [Compound 24, ethyl 4-[(8-methoxy-5-oxo-4H-triazolo[1,5-a]quinazolin-3-yl)sulfonyl]-3-methyl-benzoate]	>=100 μM	–	–	–
≥ 100 µM	COc1ccc2c(=O)[nH]c3c(S(=O)(=O)c4ccc(C#N)cc4C)nnn3c2c1 [Compound 22, 4-[(8-methoxy-5-oxo-4H-triazolo[1,5-a]quinazolin-3-yl)sulfonyl]-3-methyl-benzonitrile]	>=100 μM	–	–	–
≥ 100 µM	COc1cc2c(=O)[nH]c3c(S(=O)(=O)c4ccc(C)cc4C)nnn3c2cc1O [Compound 57, 3-(2,4-dimethylphenyl)sulfonyl-8-hydroxy-7-methoxy-4H-triazolo[1,5-a]quinazolin-5-one]	>=100 μM	–	–	–
≥ 100 µM	COc1ccc2c(=O)[nH]c3c(S(=O)(=O)c4ccc(C(F)(F)F)cc4)nnn3c2c1 [Compound 25, 8-methoxy-3-[4-(trifluoromethyl)phenyl]sulfonyl-4H-triazolo[1,5-a]quinazolin-5-one]	>=100 μM	–	–	–
≥ 100 µM	COc1ccc2c(=O)[nH]c3c(S(=O)(=O)c4ccc(C(N)=O)cc4C)nnn3c2c1 [Compound 32, 4-[(8-methoxy-5-oxo-4H-triazolo[1,5-a]quinazolin-3-yl)sulfonyl]-3-methyl-benzamide]	>=100 μM	–	–	–
≥ 100 µM	COc1ccc2c(=O)[nH]c3c(S(=O)(=O)c4ccc(-c5nnc(C)[nH]5)cc4C)nnn3c2c1 [Compound 33, 8-methoxy-3-[2-methyl-4-(5-methyl-4H-1,2,4-triazol-3-yl)phenyl]sulfonyl-4H-triazolo[1,5-a]quinazolin-5-one]	>=100 μM	–	–	–
≥ 100 µM	COc1ccc2c(c1)c(=O)[nH]c1c(S(=O)(=O)c3ccc(C)cc3C)nnn12 [Compound 30, 3-(2,4-dimethylphenyl)sulfonyl-7-methoxy-4H-triazolo[1,5-a]quinazolin-5-one]	>=100 μM	–	–	–
≥ 100 µM	Cc1ccc(S(=O)(=O)c2nnn3c2[nH]c(=O)c2cc(O)c(OCCO)cc23)c(C)c1 [Compound 61, 3-(2,4-dimethylphenyl)sulfonyl-7-hydroxy-8-(2-hydroxyethoxy)-4H-triazolo[1,5-a]quinazolin-5-one]	>=100 μM	–	–	–
≥ 100 µM	COc1ccc2c(=O)[nH]c3c(S(=O)(=O)c4ccc(C(=O)O)cc4C)nnn3c2c1 [Compound 23, 4-[(8-methoxy-5-oxo-4H-triazolo[1,5-a]quinazolin-3-yl)sulfonyl]-3-methyl-benzoic acid]	>=100 μM	–	–	–
≥ 100 µM	COc1ccc2c(=O)[nH]c3c(S(=O)(=O)c4ccc(C#N)cc4)nnn3c2c1 [Compound 29, 4-[(8-methoxy-5-oxo-4H-triazolo[1,5-a]quinazolin-3-yl)sulfonyl]benzonitrile]	>=100 μM	–	–	–
≥ 100 µM	COc1ccc2c(=O)[nH]c3c(S(=O)(=O)c4ccc(-c5nn[nH]n5)cc4C)nnn3c2c1 [Compound 31, 8-methoxy-3-[2-methyl-4-(2H-tetrazol-5-yl)phenyl]sulfonyl-4H-triazolo[1,5-a]quinazolin-5-one]	>=100 μM	–	–	–
